The values below come from US12171744B2, “Pharmaceutical combinations for the treatment of cancer” (Presage Biosciences, Inc., priority 2016, dated 2024).

The structures appear in SMILES notation.

Assay [1] has as its target CDK9 (Homo sapiens, UniProt P50750). Kind of assay: Kinase inhibition profiling (filter binding assay with γ-33P-ATP).
Description: The testing facility was Reaction Biology Corp. Kinase activity was measured using a filter binding assay with radioactive γ-33P-ATP as phosphate donor. The ATP concentration was near the Km for respective kinase. For each kinase, an IC50 value were calculated from a 10-point concentration curve of the test article and converted to Ki values.
The subject of assay [2] is Toledo/Dox1000 cells. Briefly: CIVO microinjection, CC3 expression. Conditions: mouse, in vivo. Details: species or system mice. How it is done:
(§1) Cell lines shown in Table 1, adherent or suspension, were treated in 6-well dishes or T10 flasks respectively, seeded at one million per ml density prior to treatment in total volumes of 3-10 ml. All agents used for in vitro cell treatments were formulated in water/DMSO to achieve required concentrations (as stated in respective figure labels/legends) with DMSO concentrations not exceeding 0.01%. Drug sources are indicated in table under ‘CIVO microinjection studies’. Cells were harvested at experimental time points: 2, 6, or 24 hours post treatment as indicated in respective figures, first by washing cells twice in ice-cold PBS in 15 ml falcon tubes, centrifugation at 1000 rpm for 5 mins followed by lysis of the respective cell pellets as described in section below. Note: Drug resistant NUDHL1 Dox 1000 nM and Toledo Dox 1000 nM cell lines were generated at Presage by culturing parental lines in media with stepwise increments in Doxorubicin concentration over several passages. These cells were used to generate xenografts when resistance to 1 uM Dox was achieved.
(§2) Mice were enrolled into CIVO drug studies when the tumor volume reached approximately 1000 mm^3. […]

The subject of assay [3] is NUDHL/Dox1000 cells. Kind of assay: CIVO microinjection, CC3 expression. Conditions: mouse, in vivo. Details: species or system mice. On the procedure: as §1, §2
For assay [4], the system named is U2932 model of DLBCL. Kind of assay: Western blot of treated cells. The format is cell-based. Conditions: increasing concentration of voruciclib, single agent. On the procedure: as §1, with “These cells were used to generate xenografts when resistance to 1 uM Dox was achieved.” left out
Protein lysates were prepared by adding ice-cold 1×RIPA Buffer (from 10×, Millipore) with 1×-3× Halt protease and phosphatase inhibitor cocktail (100×, Pierce) to cell pellets, followed by pulse sonication (˜3-5 secs) three times. […] Protein samples were quantified using Bradford assay (Biorad) at 1:10 or higher dilutions using appropriate blank controls with 1×RIPA. […]
In general terms: In western blotting, separated proteins are transferred to a membrane and probed.

Assay [5] relates to NudHL1 DLBCL xenografts. Kind of assay: CIVO microinjection, CC3 staining after 6 hours. Conditions: treated for 6 hours. The assay is classed as in vivo, mice. On the procedure:
Mice were enrolled into CIVO drug studies when the tumor volume reached approximately 1000 mm^3. Microinjection studies were performed using the CIVO device as previously described (Klinghoffer et al, Science Translational Medicine 2015) The device was configured with 6 injection needles set for a 6 mm injection length and a total volume delivery of 3 μl. A fluorescent tracking marker (FTM) was added to each drug reservoir in vehicle for delivery along with each drug or drug combination. […] Total amounts of agents injected are tabulated below in Table 4.
FIGS. 9A-9D depict cells that were treated as above and stained for cleaved caspase-3 (CC3) as a marker of apoptosis (shown in red).
FIGS. 10A-10D depict cells that were treated as above and stained for cleaved caspase-3 (CC3) as a marker of apoptosis (shown in red).

Sequence of CDK9 (P50750 whole entry): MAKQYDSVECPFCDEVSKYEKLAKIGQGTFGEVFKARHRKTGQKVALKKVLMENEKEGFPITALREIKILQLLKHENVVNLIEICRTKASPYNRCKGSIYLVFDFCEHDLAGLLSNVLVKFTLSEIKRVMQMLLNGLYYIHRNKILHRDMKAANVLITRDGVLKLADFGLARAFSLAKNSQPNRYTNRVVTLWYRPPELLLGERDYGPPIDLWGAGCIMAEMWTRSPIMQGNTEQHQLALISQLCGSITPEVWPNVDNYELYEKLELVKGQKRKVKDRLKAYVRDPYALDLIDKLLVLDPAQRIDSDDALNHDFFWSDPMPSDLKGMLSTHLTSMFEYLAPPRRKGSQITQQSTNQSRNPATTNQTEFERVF
Sequence of CDK9 (O60563 whole entry partner): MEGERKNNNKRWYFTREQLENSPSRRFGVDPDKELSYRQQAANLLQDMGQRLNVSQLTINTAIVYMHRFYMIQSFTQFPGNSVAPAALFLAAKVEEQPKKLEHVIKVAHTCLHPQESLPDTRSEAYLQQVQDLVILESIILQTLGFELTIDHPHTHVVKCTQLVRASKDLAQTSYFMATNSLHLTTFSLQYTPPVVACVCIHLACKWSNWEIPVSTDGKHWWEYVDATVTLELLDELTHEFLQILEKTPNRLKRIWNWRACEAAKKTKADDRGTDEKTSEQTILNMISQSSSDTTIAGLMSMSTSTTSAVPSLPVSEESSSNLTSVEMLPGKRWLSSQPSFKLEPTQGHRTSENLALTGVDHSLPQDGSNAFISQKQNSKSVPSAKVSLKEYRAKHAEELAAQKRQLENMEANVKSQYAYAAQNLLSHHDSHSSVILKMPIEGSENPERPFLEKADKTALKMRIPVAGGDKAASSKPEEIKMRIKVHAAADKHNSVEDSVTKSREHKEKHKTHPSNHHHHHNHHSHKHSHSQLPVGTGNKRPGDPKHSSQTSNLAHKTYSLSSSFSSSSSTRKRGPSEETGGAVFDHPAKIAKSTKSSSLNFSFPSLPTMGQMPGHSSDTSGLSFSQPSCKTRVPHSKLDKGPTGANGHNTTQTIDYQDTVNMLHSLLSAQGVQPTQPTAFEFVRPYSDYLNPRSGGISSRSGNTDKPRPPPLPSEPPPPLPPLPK

On to `CN1CC[C@@H](c2c(O)cc(O)c3c(=O)cc(-c4ccc(C(F)(F)F)cc4Cl)oc23)[C@@H]1CO` (relative stereo) [voruciclib, (+)-trans-2-(2-Chloro-4-trifluoromethylphenyl)-5,7-dihydroxy-8-(2-hydroxymethyl-1-methylpyrrolidin-3-yl)-chromen-4-one], for which the “inhibition of CDK9” value in assay [1] is listed as “strongest inhibition”. Also, the CC3 expression result is given as “slight effect” in assay [2], “slight effect” in assay [3] and “little to no increase” in assay [5]. Also, the MCL-1 entry in assay [4] is reported as “suppresses”. The “apoptosis (cPARP)” value in assay [4] is on record as “increases as the concentration of voruciclib increases”.
